The subject of data set [1] is SH-SY5Y neuroblastoma cells. Description: MTT cytotoxicity assay. It counts as cell-based, human. Particulars: 48 h. The protocol:
The human neuroblastoma SH-SY5Y cells were generously donated by collaborators from the Blackburn Laboratory, University of Cape Town. Cells were cultured in monolayer in Dulbecco’s Modified Eagle Medium (DMEM, Gibco, Life Technologies Corporation UK), supplemented with 10% foetal bovine serum (FBS, Gibco, Life Technologies Corporation, Paisley, UK), 100 U/ml penicillin, and 100 µg/ml streptomycin (Lonza Group Ltd., Verviers Belgium). Cultures were incubated at 37 °C in a humidified atmosphere with 5% CO2. The growth medium was replaced every 3 days and cells were sub-cultured when they attained 70 to 80% confluency using a solution of 0.25% trypsin EDTA (Lonza Group Ltd., Verviers, Belgium).
SH-SY5Y cells were plated in growth medium in the flat bottom 96 well plates at a density of approximately 7500 cells/well. The cells were allowed to adhere to the plate surface for 24 h and following this their media were replenished with fresh media containing the test compounds at 10 µM, 50 µM and 100 µM concentrations dissolved in DMSO. Vehicle control cells were treated with DMSO, at a concentration similar to that of the highest concentration of the test compounds. Following an incubation period of 48 h, 10 µl of MTT solution (5 mg/ml) was added to each well. This was further incubated for 4 h and the formazan formed was solubilised with 100 µl of DMSO. The plates were read using a BMG Labtech Omega® POLARStar plate reader spectrophotometer (Ortenberg, Germany) to determine the absorbance recorded at a wavelength of 570 nm. The percentage cell viability was calculated relative to the vehicle control using the following formula: Cellviability%=(Absorbanceoftreatedwell/Absorbanceofuntreatedwell)×100 [drawing 1]

In data set [2] the test system is MPP+-compromised SH-SY5Y neuroblastoma cells. It counts as cell-based, human. Particulars: 10 µM compound, 2000 µM MPP+; for MPP+ neuroprotection (difference in percentage cell viability vs MPP+ only treated cells): 2 h pre-treatment, 24 h, SH-SY5Y; for survival rate of MPP+-treated cells: untreated control = 100%. The protocol:
SH-SY5Y cells were seeded onto a 96-well plate in a growth medium at a density of 10,000 cells/well. Cells were pre-treated with test compounds at a concentration of 10 µM and thereafter 2000 µM MPP^+ following a 2-h incubation period. Afterwards, cells were incubated for 24 h and MTT colorimetric assay was used to measure cell viability relative to untreated control. To determine the data’s statistical significance, the One-way ANOVA Turkey’s multiple comparison test was conducted on all experimental replicates using GraphPad Prism® 8 (San Diego, USA).
The SH-SY5Y cells were pre-treated with 10 µM of the test compounds for 2 h followed by the addition of 2000 µM of MPP^+.

Data set [3] relates to Aβ 25–35 treated SH-SY5Y cells. Description: Amyloid-beta 25–35 induced neurotoxicity (MTT). It counts as cell-based, human. Particulars: 10 µM to 100 µM compound, Aβ 25–35 20 µM, 24 h. The protocol:
Human neuroblastoma cells (SH-SY5Y) were grown in a culture medium (DMEM/F-12) and supplemented with 10% foetal bovine serum. Prophylactically, 1% v/v of penicillin/streptomycin was added to the medium. Cells were maintained by incubation at 37 °C with 5% carbon dioxide. All experiments were performed by seeding the cells into 24-well plates. Once confluent, the cells were then pre-treated with compounds 6 and 7 (10 µM) for 1 h, followed by Aβ 25–35 addition (20 µM) and incubated for 24 h. The untreated control cells were treated with DMEM which contained DMSO and were incubated in the same manner as the treated cells. […] The level of significance was analysed using One-way ANOVA statistical analysis and expressed using the p-value.
The accumulation of extracellular Aβ plaques has been marked as one of the pathological hallmarks of neurotoxicity associated with AD[59–61] and coumarin moieties have previously shown to inhibit Aβ plaque formation and Aβ induced neurotoxicity[62]^,[63]. To further explore the neuroprotective potential of the propargylamine-containing coumarin derivatives 6 and 7, their ability to curb neurotoxicity induced by the amyloid-β (Aβ) protein was thus assessed according to the method described in the experimental section. […]

For a further data set, the target named is recombinant human MAO-B (Homo sapiens, UniProt P27338). It counts as biochemical. The conditions noted are these: preincubation 0-60 min, inhibitor about twofold IC50.
Chain of recombinant human MAO-B (P27338 whole entry): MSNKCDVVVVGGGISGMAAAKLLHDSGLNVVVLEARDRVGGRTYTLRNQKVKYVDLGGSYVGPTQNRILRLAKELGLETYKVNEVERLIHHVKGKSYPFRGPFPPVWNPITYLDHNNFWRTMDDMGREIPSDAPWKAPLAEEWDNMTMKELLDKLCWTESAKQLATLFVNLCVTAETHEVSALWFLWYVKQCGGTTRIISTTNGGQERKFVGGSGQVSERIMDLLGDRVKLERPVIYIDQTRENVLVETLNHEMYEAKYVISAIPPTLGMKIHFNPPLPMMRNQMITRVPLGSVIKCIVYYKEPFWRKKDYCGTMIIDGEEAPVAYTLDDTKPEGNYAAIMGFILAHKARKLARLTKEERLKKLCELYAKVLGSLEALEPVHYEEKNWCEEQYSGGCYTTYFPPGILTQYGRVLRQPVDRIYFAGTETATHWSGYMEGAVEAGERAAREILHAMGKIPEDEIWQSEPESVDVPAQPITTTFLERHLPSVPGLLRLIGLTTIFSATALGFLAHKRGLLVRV

Experimental for recombinant human MAO-B: The concentration of inhibitor in these incubations was approximately twofold the measured IC50 value for the inhibition of the MAO-B enzyme. Potassium phosphate buffer (100 mM, pH 7.4, made isotonic with NaCl) was used as the incubation medium. A final concentration of 30 hx00B5;M kynuramine for MAO-B was then added to the preincubated enzyme preparations and the resulting 250 µl reactions were incubated at 37 °C for 15 min. The reactions were terminated with the addition of 200 µl NaOH (2 N) and a volume of 600 µl distilled water was added to each reaction. The fluorescence of the MAO-B generated 4-hydroxyquinoline in the supernatant fractions were measured using a fluorescent microplate reader at an excitation wavelength of 310 nm and an emission wavelength of 400 nm. Time-dependent graphs were plotted against the relative fluorescent unit readings (RFU).
To determine the binding mode of the studied compounds on MAO-B, the time dependency of enzyme inhibition was measured. If the compounds form a covalent or irreversible adduct with the enzyme, a time-dependent reduction of enzyme activity would be expected. […] For this purpose, the concentrations of the test compounds chosen were approximately twofold the measured IC50 values for the inhibition of the respective enzymes.

As to `O=c1oc2cc(OCCc3ccccc3)ccc2cc1CBr` [Compound 4, 3-(bromomethyl)-7-(2-phenylethoxy)-2H-1-benzopyran-2-one], the “cell survival (MTT)” value was 65% in data set [1] (50 µM) and 7% in data set [1] (100 µM). The “MPP+ neuroprotection (difference in percentage cell viability vs MPP+ only treated cells)” value in data set [2] amounted to 22.11%.
With `CCN(CC)C(=O)Oc1ccc2cc(CBr)c(=O)oc2c1` [Compound 5, 3-(bromomethyl)-2-oxo-2H-1-benzopyran-7-yl-diethylcarbamate], the “cell survival (MTT)” value in data set [1] (50 µM) and in data set [1] (100 µM) was 0% throughout. The “MPP+ neuroprotection (difference in percentage cell viability vs MPP+ only treated cells)” value in data set [2] came to 21.86%.
With `C#CCNCc1cc2ccc(OCCc3ccccc3)cc2oc1=O` [Compound 6, 7-(2-phenylethoxy)-3-{[(prop-2-yn-1-yl)amino]methyl}-2H-1-benzopyran-2-one], the “neuroprotection against Aβ 25–35 cytotoxicity” value in data set [3] is reported as “did not show any significant ability to mitigate the cytotoxic effects”. Further, the “mode of MAO-B inhibition (time dependency)” value on recombinant human MAO-B is on record as “reversible inhibitors of MAO-B”. Besides, in data set [2], the “survival rate of MPP+-treated cells” value amounted to 92% and the “MPP+ neuroprotection (difference in percentage cell viability vs MPP+ only treated cells)” value is 35.96%.
`C#CCNCc1cc2ccc(OC(=O)N(CC)CC)cc2oc1=O` [Compound 7, 2-oxo-3-{[(prop-2-yn-1-yl)amino]methyl}-2H-1-benzopyran-7-yl-diethylcarbamate]: the “neuroprotection against Aβ 25–35 cytotoxicity” value in data set [3] is reported as “did not show any significant ability to mitigate the cytotoxic effects”. The “mode of MAO-B inhibition (time dependency)” value at recombinant human MAO-B is reported as “reversible inhibitors of MAO-B”. For the same compound, in data set [2], the “survival rate of MPP+-treated cells” value was 85% and the “MPP+ neuroprotection (difference in percentage cell viability vs MPP+ only treated cells)” value is reported as 28.19%.

(Values after article PMC8291583, “Design, synthesis, and evaluation of 3,7-substituted coumarin derivatives as multifunctional Alzheimer’s disease agents” (Journal of Enzyme Inhibition and Medicinal Chemistry, 2021).)
